From patent publication US8415156B2, “Recombinant laminin-521” (Biolamina AB, priority 2010, dated 2013)

What was measured:
Format in all cases: cell-based, human
Oct4 and Nanog = assay: Real-time quantitative RT-PCR of pluripotency markers (Example 1); settings: after several single cell dissociation passages
Description: Total RNA was isolated and cDNA was synthesized as described in Rodin et al., Nature Biotechnol., vol. 28, pp. 611-615 (2010). Real-time quantitative RT-PCR Taqman assays were performed using the Applied Biosystems 7300 Real-Time PCR System. All reactions were done in quadruplicate with predeveloped gene expression assay mix (Applied Biosystems) containing primers and a probe for the mRNA of interest. Additional reactions for each experiment included predeveloped gene expression assay mix for GAPDH, used to normalize the RNA input. All data were analyzed with 7300 System SDS Software version 1.4.

hES cells = assay: Cell survival assay, 24 hours (Example 2)
Description: Tissue cell culture plates were coated overnight at 4° C. with sterile solutions of the ECM proteins, such as human recombinant LN-521, all at a concentration of 30 μg/ml (5 μg/cm^2). Control plates were coated with Matrigel according to the STEMCELL Technologies' instructions. Prior to use, dishes were pre-warmed in an incubator for one hour after which prewarmed O3 medium was added without additional washing of the dish. After applying a fresh LN-521 solution to a new dish, the remaining LN-521 solution could be used at least once more. All the adhesion, survival, and inhibition of survival experiments were carried out using fresh coating materials.
Briefly, 96-well plates were coated by extracellular matrix proteins as described above and blocked by O3 medium containing bovine serum albumin. The ES cells were plated at cell density of 50,000 cells/cm^2 onto extracellular matrix-coated plates and left to adhere for 1 hour in a cell incubator. After that the plates were washed 3 times with the medium to remove the non-adherent cells, and then the adherent cells were fixed for 20 minutes by 5% glutaraldehyde, stained by 0.1% Crystal Violet. (Kebo Lab, Spanga, Sweden, www.kebolab.se). After one hour and 3 washes with water, Crystal Violet was extracted with 10% acetic acid and quantified by measuring optical density at 570 nm. All the experiments were performed in quadruplicate.
The survival assay was performed as described for the cell adhesion assay above, except that the cells were left in the cell incubator for 24 hours. For inhibition of survival assay, the cells were kept in a medium with function blocking antibodies at the concentrations recommended by the manufacturer or pathway inhibitors at concentrations indicated in the text for 30 minutes, and then plated on the coated dishes. All the experiments were performed in quadruplicate.
Pluripotent hES cells express α1, α5, β1, β2 and γ1 laminin chains. To compare the adhesion and clonal survival of hES cells plated from single cell suspension to different coating substrata, hES cells growing as monolayers on LN-511 or as clusters on a feeder layer were trypsinized into single cell suspension in O3 medium and plated on cell culture dishes coated with Matrigel, LN-111, LN-511, LN-521 or a mixture of LN-511 and LN-521, in the absence or presence of a ROCK inhibitor (Y-27632) and analyzed after 24 hours.

[1] = test system: hES cell lines HS181 and H1; assay: Karyotyping; settings: HS181 12 passages and H1 10 passages in O3; H1 7 passages in TeSR2
Description: Karyotyping of the cell lines was carried out using standard Q-banding techniques. Samples of cells were treated with colcemid KaryoMAX (0.1 μg/ml; Gibco Invitrogen Corporation) for up to 4 hours, followed by dissociation with Trypsin/EDTA solution (Gibco Invitrogen Corporation). The cells were pelleted via centrifugation and re-suspended in pre-warmed 0.0375 M KCl hypotonic solution and incubated for 10 minutes. Following centrifugation, the cells were resuspended in fixative (3:1 methanol:acetic acid). Metaphase spreads were prepared on glass microscope slides and G-banded by brief exposure to trypsin and stained with 4:1 Gurr's/Leishmann's stain (Sigma-Aldrich Co.). A minimum of 10 metaphase spreads were analyzed and additional 20 were counted.

myosin light chain (MLC) = assay: Western blot of phosphorylated myosin light chain; settings: one and six hours after plating
Description: HS181 cells were trypsinized into single cell suspension as described above. For inhibition experiments, the cells were kept in O3 medium with blocking antibodies or pathway inhibitors for 30 minutes and then 450K cells were plated on 35 mm dishes precoated with the appropriate matrix coating. For other experiments, same number of cells was plated directly after trypsinization. […] After two washings in ice-cold PBS, the plates with cells were snap frozen in liquid nitrogen and stored at −80° C. To prepare samples for western blots and ELISA, the plates were slowly thawed and kept on ice with 100-150 μl of lysis buffer (50 mM Tris-HCl, pH7.5, 150 mM NaCl, 0.5% deoxycholate, 0.5% SDS, 1% Triton X-100, 1% Igepal, Complete™ (Roche) and Phospho-Stop™ (Roche)) on top. Then, the cells were scraped, pipetted and sheared through a 27G ¾″ needle. After that, the cell pellets were clarified by centrifugation at 16,100 rcf for 15 minutes at 4° C. For western blots, 4-12% gradient gels were used for SDS electrophoresis and the proteins were transferred to PVDF membranes. The membrane was hybridized with the antibody of interest according to the manufacturer's instructions. Chemoluminescent HRP-substrate from Amersham Biosciences was used for visualization. For the densitometry analysis the films were scanned at 2,400 dpi and analyzed by the Chemilmager5500 program (1D-Multi Line densitometry mode). […]

LN-521: protein formed by joining α5, β2 and γ1 chains together; human recombinant, produced in HEK293 cells
number of mRNA transcripts of Oct4 and Nanog compared with Matrigel (Oct4 and Nanog): higher numbers of transcripts | survival of Y-27632 treated human ES cells on LN-521 compared with Matrigel (hES cells; 10 μM of Y-27632, 40,000 cells per 1 cm^2): survived better | survival on LN-521 compared with LN-511 (hES cells; 24 hours, absence of ROCK inhibitor): significantly higher | cell shape of cells growing on LN-521 24 hours after plating (hES cells; LN-521 row: absence of ROCK inhibitor, Y-27632 row: presence of ROCK inhibitor): round | survival relative to Matrigel, exogenous bFGF removed (hES cells; O3 medium without exogenous bFGF): 20 times | survival of hES cells plated from single cell suspension after 24 hours (hES cells; O3 medium, absence of ROCK inhibitor): did so as single cells | survival 24 hours after plating in medium lacking all growth factors of the TeSR1 formulation (hES cells; no bFGF, LiCl, GABA, pipecolic acid and TGFβ): survived | karyotype [1]: normal | phosphorylation of MLC compared with cells on Matrigel and LN-111 (myosin light chain (MLC)): even higher
